Experiments:
[1] = tested on: pollakiuria model rats induced by sulprostone; test: Suppression of increase in urinary frequency of rats induced by sulprostone; type: in vivo, rat; settings: awake rats
[2] = tested on: pollakiuria model rats induced by acetic acid; test: Suppression of increase in urinary frequency in rats induced by acetic acid; type: in vivo, rat; settings: awake rats; 10 mg/kg orally; dosed 2 days after 1% acetic acid into bladder; frequency within 6 hours
Description: (ii) Experiment of Suppression of an Increase in Urinary Frequency in Rats Induced by Acetic Acid
Abdomen of a rat was subjected to a midline incision under anesthetization with pentobarbital (50 mg/kg, i.p.) and bladder was exposed. Urine in the bladder was removed using a syringe equipped with an intraocular injection needle (30 G×¾). After that, 0.5 ml of 1% acetic acid solution was injected into the bladder using a syringe equipped with an intraocular injection needle (30 G×¾) and injury was closed.
With regard to measurement of urination of the animal, the animal was placed in a metabolism cage and urination was recorded with the lapse of time using a urination measuring apparatus (K. K. Neuroscience).
When acetic acid was injected into bladder of rat, urination frequency increased continuously and pollakiuria where each urinated amount decreased was induced. Each of the test drugs was evaluated using the stimulated bladder.
Evaluation of the test drug was conducted in such a manner that the test drug was administered after 2 days from injection of acetic acid into the bladder and suppressing rates for the frequency increased within 6 hours thereafter was compared. Suppressing rate (%) of frequency by each compound was determined by the following formula. […]

Compound: Cc1cc(Cl)ccc1S(=O)(=O)NC[C@H]1C2CCC(CC2)[C@@H]1/C=C\CCCC(=O)O [(1), 6-[(2S,3S)-3-(4-chloro-2-methylphenylsulfonyl-aminomethyl)bicyclo[2.2.2]octan-2-yl]-5Z-hexenoic acid]
- Inhibiting Rate (%) for Urinary Frequency, Sulprostone-Induced Pollakiuria Model ([1]; 10 mg/kg orally, sulprostone 200 μg/kg s.c. 30 minutes later, frequency over 3 hours): 58.0 ± 12.0 %
- Inhibiting Rate (%) for Urinary Frequency, Acetic Acid-Induced Pollakiuria Model [2]: 44.3 ± 12.4 %

Compound: CCN(Cc1cc(Cl)ccc1OCC(C)C)c1ccc(C(=O)NS(=O)(=O)c2c(C)noc2C)nn1 [(3), N-(3,5-dimethylisoxazol-4-ylsulfonyl)6-[N-(5-chloro-2-(isobutyloxy)benzyl)-N-ethylamino]pyridazine-3-carboxamide]
- Inhibiting Rate (%) for Urinary Frequency, Sulprostone-Induced Pollakiuria Model ([1]; 3 mg/kg subcutaneously, frequency over 3 hours after sulprostone): 49.2 ± 2.8 %

Compound: Cl.O=C(CCc1ccncc1)NNC(=O)N1Cc2ccccc2Oc2ccc(Cl)cc21 [(2), 8-chlorodibenz[b,f][1.4]oxazepine-10(11H)-carboxylic acid.2-[1-oxo-3-(4-pyridinyl)propyl]hydrazide.monohydrochloride]
- Inhibiting Rate (%) for Urinary Frequency, Sulprostone-Induced Pollakiuria Model ([1]; 10 mg/kg subcutaneously, frequency over 3 hours after sulprostone): 38.2 ± 4.6 %
